Values quoted from earlier work in patent US5223503A, “6-substituted pyrido[2,3-d]pyrimidines as antineoplastic agents” (Eli Lilly and Company, priority 1992, dated 1993).

System: solid tumors
Conditions: Proc. Amer. Assoc. Cancer Res., 31, 1053 (1990)

Nc1nc2c(c(=O)[nH]1)CC(CCc1ccc(C(=O)N[C@@H](CCC(=O)O)C(=O)O)cc1)CN2 (stereo partly shown) [lometrexol, 5,10-dideazatetrahydrofolic acid]
clinical efficacy against solid tumors: clinical efficacy against solid tumors
